# Measurements taken from patent US5597595A, “Low pH beverage fortified with calcium and vitamin D” (Abbott Laboratories, priority 1995, dated 1997).
# Where a name gives a salt, the structure may show the parent alone. Read-outs that look alike come from different tables or passages of the source.
# How the values were obtained:
# [1] = rats fed three weeks, right femur calcium; cited from earlier work
# [2] = Aluminum content of calcium sources; settings: analysis of commercially available compounds
# From the text: ^1 Values determined by analysis of commercially available compounds.
# [3] = Method: In this evaluation solubility was determined by a visual examination.
# [4] = Acid-base and calcium binding constants of glycerophosphate; assay type: physicochemical; settings: Henderson-Hasselbalch equation; listed as GP
# From the text: GaGP binds calcium with an approximate formation constant of 1.7. CaGP, when dissolved in water, dissociates readily to provide "free" calcium ions and protonated glycerophosphate species. […] On the other hand, anions, such as malate, tartrate, propionate or succinate, do provide buffer capacity at pH=3.6, and accordingly require more base or acid than GP for final adjustment of pH.
# [5] = weak acid; cited from earlier work
# [6] = tested on: aciduric and acidophilic organisms like certain varieties of yeasts and molds; settings: pH reduced from 4.5 to 3.0; cited from earlier work
# [7] = Recovery of vitamin D3 at 0-time; assay type: physicochemical
# From the text: The low pH beverage, the vitamin D3 emulsion and the powder beverage are saponified with methanolic potassium hydroxide to destroy the fat and release the vitamin D3 for extraction. The saponified samples are extracted with an ether/pentane mixture and the extracts are evaporated to dryness using nitrogen and reconstituted with iso-octane. Sample extracts are eluted on a cleanup HPLC column (cyanopropyl bonded silica), and column switching is used to transfer a "slice" of the eluant containing vitamin D3 onto an additional HPLC analytical column (aminopropyl bonded silica) for final quantitation. The vitamin D3 peak in the sample is quantitated using a linear regression external standard curve.
# To compare the initial processing loss and stability of vitamin D3 of each variable with successive batches, two criteria were routinely measured: (1) % recovery of vitamin D3 at 0-time; and (2) half life of vitamin D3 (t1/2).
# The % recovery of vitamin D3 of each batch was calculated by dividing the 0-time vitamin D3 result by the theoretical fortification of each batch times 100%. […] As used herein "theoretical fortification" refers to amount of vitamin D3 added to the product. As used herein "0-time" refers to the time of initial vitamin D3 analysis of the product. […]
# [8] = piglets; cited from earlier work
# [9] = Titratable acidity of calcium sources; assay type: physicochemical; settings: with the exception of calcium chloride
# From the text: Acidity is desired in the liquid nutritional product of the present invention for several reasons such as: to maintain the calcium salt solubility, to complement flavor, to control microbial growth, and to enhance the role of preservatives, specifically potassium benzoate or sodium benzoate. On the other hand, too much acidity can result in increased tartness and sourness that make the product undesirable from a sensory point of view. […] Titratable acidity is an indication of the total acidity of a beverage.
# [10] = low birth weight infants; cited from earlier work
# [11] = in orange juice and apple juice; cited from earlier work
# [12] = 600-800 IU/day; elderly, homebound or institutionalized individuals; cited from earlier work
# [13] = without aluminum-containing drugs; normally functioning kidneys; cited from earlier work
molecule,measurement,setting,value
"O=P([O-])([O-])[O-].O=P([O-])([O-])[O-].[Ca+2].[Ca+2].[Ca+2] [Tricalcium Phosphate, tricalcium phosphate]",relative calcium bioavailability as compared to a control,[1],110%
[Ca+2].[OH-].[OH-] [Calcium Hydroxide],Aluminum Content,[2],300-400 parts per million (ppm)
"O=C(O)[C@H](O)[C@@H](O)[C@H](O)[C@H](O)CO [D-Gluconic-Acid, D-gluconic acid (hemicalcium salt)]","solubility at 1 month, pH 5.0",[3],partially Soluble
O=P(O)(O)OCC(O)CO (centres unmarked) [glycerophosphate],effective acid-base buffering pH range / buffering capacity,[4],insignificant buffering capacity at pH=3.6
same,pKf,[5],6.1
O=C(O)c1ccccc1 [benzoic acid],preservative effect on reducing pH,[6],increased by nearly three times
N[C@@H](CS)C(=O)O [Cysteine],"vitamin D3 recovery, in words",[7],did not affect vitamin D3 recovery
Calcium Glycerophosphate [CaGP],effectiveness as a source of calcium in TPN solutions,[8],as effective as calcium gluconate
same,"titratable acidity, in words",[9],lowest titratable acidity
same,effectiveness as a source of calcium in TPN solutions,[10],as effective as calcium gluconate
O=C(CO)[C@@H](O)[C@H](O)[C@H](O)CO [Fructose],calcium bioavailability from CCM,[11],promoted positive calcium bioavailability
vitamin D,effect on calcium balance and fracture risk,[12],improve calcium balance and reduce fracture risk
"O=C(O)CC(O)(CC(=O)O)C(=O)O [Calcium Citrate, calcium citrate]",relative calcium bioavailability as compared to a control,[1],110%
same,risk of aluminum toxicity,[13],does not pose a risk of aluminum toxicity
